Experiment [1] is described as follows: Inhibition of Escherichia coli topoisomerase 4 assessed as relaxation of supercoiled plasmid pBR322 DNA and measured after 30 mins.
In a further experiment the target is DNA gyrase (Escherichia coli, UniProt P0AES4+P0AES6). Description: Inhibition of Escherichia coli DNA gyrase supercoiling activity using pBR322 as substrate incubated for 30 mins measured by gel-based assay. Format: protein-complex assay.
The test system of another experiment is Escherichia coli. Description: Antibacterial activity against Escherichia coli measured by broth microdilution assay. Background: Dilution methods test growth across graded concentrations, often in twofold steps.
Another experiment has as its system Staphylococcus aureus. As to the kind of experiment: Antibacterial activity against Staphylococcus aureus measured by broth microdilution assay.

The results in this text go back to ChEMBL document CHEMBL5104153, “De novo design of type II topoisomerase inhibitors as potential antimicrobial agents targeting a novel binding region” (RSC Med Chem, 2022).

Consider `CCOc1cccc(-c2cccc(C(=O)N[C@@H](CN)c3ccccc3)c2)c1F`, for which the IC50 (as a rule, the concentration that gives 50% inhibition) in experiment [1] was greater than 100 µM.
As for `Cl.NCC(NC(=O)c1cccc(-c2cccs2)c1)c1ccc(O)cc1` (configuration not stated), the 50% inhibitory concentration (IC50) in experiment [1] was greater than 540 µM; against DNA gyrase, 0.3 µM. Further, the MIC with Escherichia coli and in the experiment on Staphylococcus aureus was 8 µg/mL in each case.
Take `COc1ccccc1-c1cccc(C(=O)NC(CN)c2cccc(O)c2)c1` (configuration not stated): the IC50 in experiment [1] is greater than 100 µM.
`NC[C@H](NC(=O)c1cccc(-c2ccccc2C(F)(F)F)c1)c1ccccc1`: the 50% inhibitory concentration (IC50) in experiment [1] was greater than 100 µM.
